The source of these data is patent US20050058658A1, “Compositions and methods for immunotherapy of human immunodeficiency virus (HIV)” (priority 2003, published 2005).

B1: IL-12: Interleukin 12 (protein, UniProt P43431 23-215; P43432 23-335, looked up)
Interleukin-12 subunit alpha: RVIPVSGPARCLSQSRNLLKTTDDMVKTAREKLKHYSCTAEDIDHEDITRDQTSTLKTCLPLELHKNESCLATRETSSTTRGSCLPPQKTSLMMTLCLGSIYEDLKMYQTEFQAINAALQNHNHQQIILDKGMLVAIDELMQSLNHNGETLRQKPPVGEADPYRVKMKLCILLHAFSTRVVTINRVMGYLSSA
Interleukin-12 subunit beta: MWELEKDVYVVEVDWTPDAPGETVNLTCDTPEEDDITWTSDQRHGVIGSGKTLTITVKEFLDAGQYTCHKGGETLSHSHLLLHKKENGIWSTEILKNFKNKTFLKCEAPNYSGRFTCSWLVQRNMDLKFNIKSSSSSPDSRAVTCGMASLSAEKVTLDQRDYEKYSVSCQEDVTCPTAEETLPIELALEARQQNKYENYSTSFFIRDIIKPDPPKNLQMKPLKNSQVEVSWEYPDSWSTPHSYFSLKFFVRIQRKKEKMKETEEGCNQKGAFLVEKTSTEVQCKGGNVCVQAQDRYYNSSCSKWACVPCRVRS
B2: KC: chemokine (protein, UniProt P12850 25-96, looked up)
Growth-regulated alpha protein: APIANELRCQCLQTMAGIHLKNIQSLKVLPSGPHCTQTEVIATLKNGREACLDPEAPLVQKIVQKMLKGVPK
B3: IL-7: interleukin (protein, UniProt P10168 26-154, looked up)
Interleukin-7: ECHIKDKEGKAYESVLMISIDELDKMTGTDSNCPNNEPNFFRKHVCDDTKEAAFLNRAARKLKQFLKMNISEEFNVHLLTVSQGTQTLVNCTSKEEKNVKEQKKNDACFLKRLLREIKTCWNKILKGSI
B4: MIP-1α: chemokine (protein, UniProt P10855 24-92, looked up)
C-C motif chemokine 3: APYGADTPTACCFSYSRKIPRQFIVDYFETSSLCSQPGVIFLTKRNRQICADSKETWVQEYITDLELNA
B5: IL-4: interleukin (protein, UniProt P07750 21-140, looked up)
Interleukin-4: HIHGCDKNHLREIIGILNEVTGEGTPCTEMDVPNVLTATKNTTESELVCRASKVLRIFYLKHGKTPCLKKNSSVLMELQRLFRAFRCLDSSISCTMNESKSTSLKDFLESLKSIMQMDYS
B6: IL-11: interleukin (protein, UniProt P20809 22-199, looked up)
Interleukin-11: PGPPPGPPRVSPDPRAELDSTVLLTRSLLADTRQLAAQLRDKFPADGDHNLDSLPTLAMSAGALGALQLPGVLTRLRADLLSYLRHVQWLRRAGGSSLKTLEPELGTLQARLDRLLRRLQLLMSRLALPQPPPDPPAPPLAPPSSAWGGIRAAHAILGGLHLTLDWAVRGLLLLKTRL
B7: IL-18: interleukin (protein, UniProt P70380 36-192, looked up)
Interleukin-18: NFGRLHCTTAVIRNINDQVLFVDKRQPVFEDMTDIDQSASEPQTRLIIYMYKDSEVRGLAVTLSVKDSKMSTLSCKNKIISFEEMDPPENIDDIQSDLIFFQKRVPGHNKMEFESSLYEGHFLACQKEDDAFKLILKKKDENGDKSVMFTLTNLHQS

Where no end group is shown, it is not given here.

The first experiment relates to Mouse sarcoma 180 cells.
Test: not given
In kind it is cell-based.
Conditions: not given
As for the experimental part:
In one embodiment, a NK cell assay is used to assess ARP-induced cytotoxic activity of NK-like cells. Briefly, by way of example but not limitation, a NK cell assay can be carried out as follows: large granular lymphocytes (LGLs) are co-cultured with tumor cells at various ratios (effector to target ratio) for four days at 37° C., 5% CO2. […] The culture is terminated at the end of day 4 and vitally stained using a MTT cell viability quantification assay (see Mossman, T. J. Immunol. Methods 1983, 65:55; and Sigma Chemical MTT (M5655) product application note). Culture media is aspirated and the remaining cells are washed and replaced with DMEM/F12 plus FCS, containing MTT. The cells are further incubated for 4-5 hours at 37° C. Absorbance is measured with the aid of a plate reader. Decreased absorbance indicated a decrease in the number of viable cells per well (i.e., cytotoxicity). Absorbance is measured again after the MTT is solubilized by replacement of the medium with 2-propanol containing HCl, which gives a uniform color throughout the well. NK-inducing activity is calculated relative to negative (PBS/BSA) and positive (internal standard) controls.
Spleens (10-15 per experiment) were aseptically removed from male Balb/C mice 6-10 weeks of age. Splenocytes were “squeezed” out of spleens using 2 sterile glass microscope slides. Cells were collected in approximately 10 ml of DMEM/F12 containing 10% fetal calf serum (FCS) and gentamicin (50 μg/ml). Single cell suspensions were generated by passing collected cells through a 70 μm nylon mesh screen. After washing the cell pellet once with PBS (centrifuged at 675×g for 5 min), red blood cells were lysed by brief hypotonic shock (i.e. exposure to sterile distilled, deionized water, followed immediately with appropriate volumes of 10×PBS to return to isotonicity). Remaining cells were centrifuged and resuspended in DMEM/F12+10% FCS and transferred to 75 cm^2 flasks each containing 25 mls DMEM/F12+10% FCS (cells from 5 spleens per flask). The cells were incubated for 60 min. at 37° C. to selectively remove readily adherent cells (mainly fibroblasts and macrophages). After the incubation, the flasks were gently shaken and the non-adherent cells were removed, pelleted by centrifugation, and resuspended in DMEM/F12 (no supplements) (1.0 mL/10^8 cells). A 1.0 mL volume of these cell suspensions were carefully layered onto a 70%/60%/40% (2 mL/4 mL/4 mL) Percoll™ gradients in 15 ml centrifuge tubes and centrifuged for 30 min at 675×G. The cells which sediment at the 40/60 interface represent primarily large granular lymphocytes (LGLs), enriched with NK cells. These cells were carefully removed with a pasteur pipet, centrifuged, washed once with PBS and resuspended in approximately 5 mL DMEM/F12 supplemented with gentamicin (50 μg/mL) and 10% fetal calf serum. Cell counts and appropriate dilutions of LGL cells were made with these cells, as described below. For convenience this LGL cell preparation is interchangeably referred to as NK cells.
Mouse sarcoma 180 cells were seeded into 96 well plates at a density of 5×10^3 cells per well in 100 μl DMEM/F12, supplemented with 10% FCS and gentamicin (50 μg/mL). […] NK cells were added in 100 μL of supplemented DMEM/F12 at designated densities: 0 NK cells/well; 5×10^4 NK cells/well (1:10 target/effector ratio); 1.25×10^5 NK cells/well (1:25 target/effector ratio); 2.5×10^5 NK cells/well (1:50 target/effector ratio); and, 5×10^5 NK cells/well (1:100 target/effector ratio). (Note: routinely, only the 1:50 and 1:100 ratios were used for screening purposes. IL2 was added as a media supplement with final concentration of 125 U/mL.). Co-cultures were incubated for 4 days at 37° C., 5% CO2, and terminated and vitally stained using a MTT cell viability quantification assay (see Mossman, T. J. Immunol. Methods 65:55 (1983); and Sigma Chemical MTT (M5655) product application note). […]
For B1, the “Effect on NK-CMC (footnotes of Table 16)” value is on record as “synergistically increases NK-CMC at low concentrations of IL-2”.

The experiment is the same for the next values; noted with them: wide range of concentrations, in the presence and absence of IL-2 (125 U/ml).
Turning to “Cecropin A: defensin / anti-microbial peptide (KWKLFKKIEKVGQNIRDGIIKAGPAVAVVGQATQIAK; UniProt P01507 27-63, looked up)”, the “NK-CMC Activity” value is recorded as “−”.

Regarding “Cecropin B: defensin / anti-microbial peptide (KWKVFKKIEKMGRNIRNGIVKAGPAIAVLGEAKAL; ends and bridges not checked; UniProt P01508 27-61, looked up)”, the “NK-CMC Activity” value is recorded as “−”.

For the molecule Cecropin P1, the “NK-CMC Activity” value is “−”. The same measure, in the same setting: then FGFbasic: growth factor, with “−”; and IFNα, with “−”; and IL-15: interleukin, with “−”. Still for that read-out and setting: as for JE/MCP-1: chemokine, the entry is “−”; as for Magainin I, “−”.

For the molecule Magainin II, the “NK-CMC Activity” value is listed as “−”. Still for that read-out and setting: then TGFα: growth factor, with “−”; and B2, with “−”; and B3, with “−”.

With B4, the “NK-CMC Activity” value is “−”.

As to B5, the “NK-CMC Activity” value is recorded as “−”. The same measure, in the same setting: then B6, with “−”.

A further experiment has as its system freshly isolated dendritic cells (CD11c+ splenocytes). As to the kind of experiment: Dendritic cell (DC) assay: IL-12 release. In kind it is cell-based, BALB/c mice.
Conditions: not given
An excerpt:
In a preferred embodiment, dendritic cell (DC) assay is used to follow interleukin-12 (IL-12) release from freshly isolated dendritic cells as an index of DC activation (see section 13). […] Briefly, by way of example but not limitation, a DC assay can be carried out as follows: freshly isolated dendritic cells (CD11c^+ splenocytes, e.g., isolated from the spleens of BALB/c mice within ten hours of assaying the activity) are suspended at a density of 0.5×10^6 cells per mL in cytokine supplemented culture media (GM-CSF, 1.0 ng/ml; IL-4, 1.0 ng/ml; IFNg, 3 ng/ml; anti mouse CD40; 0.5 mg/ml). […] Mouse IL-12 release from the dendritic cells (CD11c^+ splenocytes) is then measured using ELISA.
DCs were isolated from the spleens of male BALB/c mice 8-12 weeks of age (Harlan Bioproducts for Science, Indianapolis, Ind.), using the magnetic assisted cell separation (MACS) system purchased from Miltenyi Biotech. In summary: Spleens were aseptically removed from mice and placed into a petri dish containing 5 mL holding media (DMEM/F12 supplemented with 10% FCS and antibiotics). Each spleen was then injected with ˜0.5 mls collagenase D solution (1 mg/mL in 10 mM Hepes-NaOH, pH 7.4, 150 mM NaCl, 5 mM MgCl2, 1.8 mM CaCl2), placed into 5-10 mL collagenase D, cut into 5-6 pieces and incubated at 37° C. for 45-60 min. Collagenase-digested spleens were then processed with glass slides and passed through a 70 μm nylon mesh cell strainer. After the strainer was flushed with 40 mL culture media, cells were centrifuged (8 min @ 200×G), suspended in 1 mL PBS and subjected to red blood cell lysis by incubating the cell suspension for 5 min at room temperature in 10 mL lysis buffer (155 mM NH4Cl, 10 mM KHCO3, 0.1 mM EDTA), followed by dilution in PBS to 50 mL and centrifugation (8 min @ 200×g). The splenocytes were then suspended in 10 mL MACS buffer (PBS pH 7.2, supplemented with 2 mM EDTA and 0.5% BSA), passed through a 40 μm nylon mesh cell strainer which was flushed with 40 mL MACS buffer. A preliminary cell count was taken at this time, prior to centrifugation (8 min @ 200×G). The splenocytes were suspended at a density of 10^8 cells per 400 μL MACS buffer. Paramagnetic MicroBeads coated with anti-CD11c antibody were mixed with the splenocyte suspension (100 μL per 10^8 cells), incubated at +4° C. for 15 min, washed, suspended in 1.0 mL MACS buffer and passed through a MS+separation column placed within a strong magnetic field. CD11c^+ cells were retained in the column whereas CD11c^− cells were washed off the column as the flow-through cell fraction. CD11c^+ cells were then collected by removing the column out of the magnetic field and flushing the column twice with 1 mL of MACS buffer. CD11c^+ cells were washed once with culture media and suspended at a density of 0.5×10^6 cells per mL in cytokine supplemented culture media {DMEM/F12 supplemented with 10% FCS and gentamicin containing mouse GM-CSF (1 ng/mL), mouse IL-4 (1 ng/mL), mouse IFNγ (3 ng/mL) and anti mouse CD40 (0.5 mg/mL)}.
Mouse IL12 release from CD11c^+ splenocytes was measured using ELISA. Briefly, CD11c+ cell culture supernatants were sampled following an overnight incubation (usually 15-18 hrs). Media samples (100 μL) were added to ELISA plates coated with anti mouse IL12 (p70) capture antibody (R&D #MAB419; 250 ng in 100 μL per well) and incubated either at 37° C. or room temperature for 2 hrs. The ELISA plates were washed extensively with wash buffer after which 100 μL per well of detection antibody/detection reagent (biotinylated anti-mouse IL12; R&D #BAF419 at 50 ng/mL and streptavidin-HRP) was added. The ELISA plates were again incubated for 2 hours, washed and exposed to […] substrate solution (Pierce #34021) for 20 min. The substrate reaction was stopped by adding 100 μL/well 2M H2SO4. ELISA plates were read at 450 nm (corrected at 540 nm) and mIL12(p70) levels were calculated using an intra-ELISA standard curve (range: 2000-31.25 pg/mL).
For `[Ca+2].[Cl-].[Cl-]` [CaCl2], the “Inhibition of DC-activity induced by crude ARP preparations” value (from here on “Inhibition of DC-activity induced”) is recorded as “did not”. On the same count and under the same terms, then `[Cl][Cu][Cl]` [CuCl2], with “inhibition of activity in mM-μM concentration range”.

`[Cl-].[Cl-].[Mg+2]` [MgCl2]: the “Inhibition of DC-activity induced” value is on record as “did not”.

With `[Cl-].[Cl-].[Zn+2]` [ZnCl2], the “Inhibition of DC-activity induced” value is “inhibition of activity in mM-μM concentration range”.

Staying with this experiment, now noted: tested for synergism and inhibition.
For the molecule FGFbasic: growth factor, the “DC/mIL12 Release” value was “−”.

On to B7, for which the “DC/mIL12 Release” value is recorded as “−”.
